Several values for one entry are separate records, joined by “and”; a condition that tells them apart may be missing. Identical values can stand only once. ± gives the expanded uncertainty stated by the source.
Test: molar heat capacity at constant volume; wn = mass fraction of the nth substance listed
Details: Fluid (supercritical or subcritical phases), Vacuum adiabatic calorimetry, w1 = 0.5001

FC(F)C(F)(F)F [pentafluoroethane] + FCF
Details	molar heat capacity at constant volume
301 K, 4414 kPa	70.23 ± 1.4 J/K/mol
302 K, 4977 kPa	70.17 ± 1.4 J/K/mol
303 K, 5537 kPa	70.3 ± 1.4 J/K/mol
303 K, 5540 kPa	70.03 ± 1.4 J/K/mol
304 K, 6101 kPa	69.82 ± 1.4 J/K/mol
304 K, 6103 kPa	69.96 ± 1.4 J/K/mol
305 K, 6663 kPa	69.83 ± 1.4 J/K/mol and 69.76 ± 1.4 J/K/mol
306 K, 7227 kPa	69.97 ± 1.4 J/K/mol
306 K, 7228 kPa	70.45 ± 1.4 J/K/mol
307 K, 7791 kPa	70.07 ± 1.4 J/K/mol
307 K, 7792 kPa	70.29 ± 1.4 J/K/mol
308 K, 8356 kPa	69.75 ± 1.4 J/K/mol
308 K, 8357 kPa	69.97 ± 1.4 J/K/mol
309 K, 8918 kPa	70.23 ± 1.4 J/K/mol and 69.75 ± 1.4 J/K/mol
310 K, 9482 kPa	70.03 ± 1.4 J/K/mol
310 K, 9484 kPa	69.9 ± 1.4 J/K/mol
311 K, 10048 kPa	70.12 ± 1.4 J/K/mol
311 K, 10049 kPa	69.86 ± 1.4 J/K/mol
312 K, 10614 kPa	69.67 ± 1.4 J/K/mol
312 K, 10615 kPa	69.66 ± 1.4 J/K/mol
313 K, 11178 kPa	69.33 ± 1.4 J/K/mol
313 K, 11179 kPa	69.43 ± 1.4 J/K/mol
314 K, 11741 kPa	69.02 ± 1.4 J/K/mol
314 K, 11743 kPa	69.3 ± 1.4 J/K/mol
315 K, 12309 kPa	69.15 ± 1.4 J/K/mol and 68.67 ± 1.4 J/K/mol
316 K, 12875 kPa	69.06 ± 1.4 J/K/mol
316 K, 12877 kPa	68.75 ± 1.4 J/K/mol
317 K, 13440 kPa	68.83 ± 1.4 J/K/mol and 68.21 ± 1.4 J/K/mol
318 K, 14003 kPa	67.4 ± 1.4 J/K/mol
318 K, 14005 kPa	68 ± 1.4 J/K/mol
319 K, 14570 kPa	67.78 ± 1.4 J/K/mol
319 K, 14571 kPa	68.05 ± 1.4 J/K/mol
320 K, 15135 kPa	67.81 ± 1.4 J/K/mol
320 K, 15137 kPa	68.49 ± 1.4 J/K/mol
321 K, 15700 kPa	67.05 ± 1.4 J/K/mol
321 K, 15701 kPa	67.37 ± 1.4 J/K/mol
322 K, 16263 kPa	66.48 ± 1.3 J/K/mol
322 K, 16265 kPa	66.83 ± 1.4 J/K/mol
323 K, 16830 kPa	66.97 ± 1.4 J/K/mol and 66.81 ± 1.4 J/K/mol
324 K, 17394 kPa	66.92 ± 1.4 J/K/mol
324 K, 17396 kPa	66.39 ± 1.3 J/K/mol
325 K, 5448 kPa	69.93 ± 1.4 J/K/mol
325 K, 17959 kPa	66.13 ± 1.3 J/K/mol
325 K, 17961 kPa	66.31 ± 1.3 J/K/mol
326 K, 5835 kPa	69.81 ± 1.4 J/K/mol
326 K, 5836 kPa	71.48 ± 1.4 J/K/mol
326 K, 18524 kPa	65.89 ± 1.3 J/K/mol
326 K, 18525 kPa	66.07 ± 1.3 J/K/mol
327 K, 6224 kPa	70.12 ± 1.4 J/K/mol
327 K, 6225 kPa	69.92 ± 1.4 J/K/mol
327 K, 19088 kPa	66.16 ± 1.3 J/K/mol
327 K, 19090 kPa	66.42 ± 1.3 J/K/mol
328 K, 6615 kPa	70.49 ± 1.4 J/K/mol
328 K, 6616 kPa	71.47 ± 1.4 J/K/mol
328 K, 19652 kPa	66.1 ± 1.3 J/K/mol
328 K, 19655 kPa	66.08 ± 1.3 J/K/mol
329 K, 7006 kPa	70.47 ± 1.4 J/K/mol
329 K, 7007 kPa	71.63 ± 1.4 J/K/mol
330 K, 7397 kPa	69.74 ± 1.4 J/K/mol
330 K, 7399 kPa	71.02 ± 1.4 J/K/mol
331 K, 7788 kPa	69.69 ± 1.4 J/K/mol
331 K, 7790 kPa	71.06 ± 1.4 J/K/mol
332 K, 8183 kPa	71.27 ± 1.4 J/K/mol
332 K, 8184 kPa	70.57 ± 1.4 J/K/mol
333 K, 8579 kPa	70.36 ± 1.4 J/K/mol and 71.51 ± 1.4 J/K/mol
334 K, 8970 kPa	71.08 ± 1.4 J/K/mol
334 K, 8971 kPa	69.51 ± 1.4 J/K/mol
335 K, 9364 kPa	69.28 ± 1.4 J/K/mol and 70.76 ± 1.4 J/K/mol
336 K, 9759 kPa	69.92 ± 1.4 J/K/mol and 70.89 ± 1.4 J/K/mol
337 K, 10156 kPa	71.33 ± 1.4 J/K/mol
337 K, 10157 kPa	70.6 ± 1.4 J/K/mol
338 K, 6179 kPa	73.09 ± 1.5 J/K/mol
338 K, 10552 kPa	71.08 ± 1.4 J/K/mol
338 K, 10553 kPa	69.86 ± 1.4 J/K/mol
339 K, 6478 kPa	73.25 ± 1.5 J/K/mol
339 K, 10948 kPa	68.64 ± 1.4 J/K/mol and 70.46 ± 1.4 J/K/mol
340 K, 6782 kPa	73.55 ± 1.5 J/K/mol
340 K, 11344 kPa	69.16 ± 1.4 J/K/mol
340 K, 11346 kPa	71.1 ± 1.4 J/K/mol
341 K, 7089 kPa	73.85 ± 1.5 J/K/mol
341 K, 11743 kPa	69.77 ± 1.4 J/K/mol
341 K, 11745 kPa	71.13 ± 1.4 J/K/mol
342 K, 7389 kPa	73.14 ± 1.5 J/K/mol
342 K, 12139 kPa	69.04 ± 1.4 J/K/mol
342 K, 12142 kPa	70.69 ± 1.4 J/K/mol
343 K, 7693 kPa	72.74 ± 1.5 J/K/mol
343 K, 12536 kPa	68.97 ± 1.4 J/K/mol
343 K, 12538 kPa	70.99 ± 1.4 J/K/mol
344 K, 7998 kPa	73.01 ± 1.5 J/K/mol
344 K, 12935 kPa	69.06 ± 1.4 J/K/mol
344 K, 12936 kPa	70.57 ± 1.4 J/K/mol
345 K, 8306 kPa	73.42 ± 1.5 J/K/mol
345 K, 13334 kPa	70.04 ± 1.4 J/K/mol
346 K, 8612 kPa	73.52 ± 1.5 J/K/mol
346 K, 13733 kPa	70.31 ± 1.4 J/K/mol
347 K, 6281 kPa	76.51 ± 1.5 J/K/mol
347 K, 8917 kPa	72.76 ± 1.5 J/K/mol
347 K, 14131 kPa	69.61 ± 1.4 J/K/mol

Source: the NIST ThermoML archive (doi:10.1021/je0501843)
